Data on two compounds can be found in US20080051365A1, “Treatment of Inflammation” (CAN-FITE BIOPHARMA LTD., priority 2004, published 2008).

Series [1] relates to Adjuvant induced Arthritis (AIA) rats. As to the kind of experiment: Adjuvant induced arthritis (AIA) in rats, arthritis clinical score. It counts as in vivo, rat. As to conditions: female Lewis rats, CF101 10 μg/kg orally twice daily from day 14, MTX 0.25 or 0.75 mg/kg intraperitoneally every 3 days from day 14, versus vehicle. The protocol:
Female Lewis rats, aged 8-12 weeks were obtained from Harlan Laboratories (Jerusalem, Israel). Rats were maintained on a standardized pelleted diet and supplied with tap water. Experiments were performed in accordance with the guidelines established by the Institutional Animal Care and Use Committee at Can-Fite BioPharma, Petah Tikva, Israel. The rats were injected subcutaneously (SC) at the tail base with 100 μl of suspension composed of incomplete Freund's adjuvant (IFA) with 10 mg/ml heat killed Mycobacterium tuberculosis, (Mt) H37Ra, (Difco, Detroit, USA). Each group contained 10 animals.
Treatment with CF101 (10 μg/kg) was initiated on day 14 after vaccination and was orally administered by gavage, twice daily. Another group was treated with Methotrexate (MTX) (0.25, 0.75 mg/kg) intraperitoneally every 3 days, starting on day 14th after vaccination. The control group in each experiment received vehicle only (DMSO in a dilution corresponding to that of the drugs).
Clinical Disease Activity Score was assessed as follows: the animals were inspected every second day for clinical arthritis. […] The clinical score was calculated by adding the four individual legs' score. The inflammatory intensity was also determined in accordance with the increase in the rat hind paw's diameter, measured by caliper (Mitotoyo, Tokyo, Japan).

The conditions of series [2]: cited from earlier work.
For series [3] the following is noted: oral CF101, healthy young men; cited from earlier work.

On to `CN(Cc1cnc2nc(N)nc(N)c2n1)c1ccc(C(=O)N[C@@H](CCC(=O)O)C(=O)O)cc1` [MTX, Methotrexate, reference compound], for which the “disease severity evaluated by the arthritis clinical score” value in series [1] is given as “significant decrease in disease severity”.
For the compound `CNC(=O)[C@H]1OC(n2cnc3c(NCc4cccc(I)c4)ncnc32)[C@H](O)[C@@H]1O` (stereo partly drawn) [CF101, 1-deoxy-1-[6-[[(3-iodophenyl)methyl]amino]-9H-purine-9-yl]-N-methyl-D-ribofuranuronamide], the “half life in mice” value in series [2] is 1.5 h. In addition, the “half life in human plasma” value in series [3] is 8 to 10 h. In addition, the “disease severity evaluated by the arthritis clinical score” value in series [1] was “significant decrease in disease severity”.
